Measurements from the supplement of paper PMC13380429.

How the values were obtained:
Conditions in all cases: 72 h
Caco-2 [1] = assay: cell viability relative to DMSO; higher = less toxic
Calu-3 [2] = assay: as above
HepG2 [3] = assay: as above
U2OS [4] = assay: as above
Vero E6 [5] = assay: as above
Caco-2 [6] = assay: relative viability EC50 (midpoint between 100% and the lowest measured viability); higher = less toxic
Calu-3 [7] = assay: as above
HepG2 [8] = assay: as above
U2OS [9] = assay: as above
Vero E6 [10] = assay: as above
Caco-2 [11] = assay: drug sensitivity score (DSS) for viability; higher = more toxic; extreme values may be limits of the assay
Calu-3 [12] = assay: as above
HepG2 [13] = assay: as above
U2OS [14] = assay: as above
Vero E6 [15] = assay: as above

SMILES	cell viability (Caco-2 [1]; 1 nM)	cell viability (Caco-2 [1]; 10 nM)	cell viability (Caco-2 [1]; 100 nM)	cell viability (Caco-2 [1]; 1000 nM)	cell viability (Caco-2 [1]; 10000 nM)	cell viability (Calu-3 [2]; 1 nM)	cell viability (Calu-3 [2]; 10 nM)	cell viability (Calu-3 [2]; 100 nM)	cell viability (Calu-3 [2]; 1000 nM)	cell viability (Calu-3 [2]; 10000 nM)	cell viability (HepG2 [3]; 1 nM)	cell viability (HepG2 [3]; 10 nM)	cell viability (HepG2 [3]; 100 nM)	cell viability (HepG2 [3]; 1000 nM)	cell viability (HepG2 [3]; 10000 nM)	cell viability (U2OS [4]; 1 nM)	cell viability (U2OS [4]; 10 nM)	cell viability (U2OS [4]; 100 nM)	cell viability (U2OS [4]; 1000 nM)	cell viability (U2OS [4]; 10000 nM)	cell viability (Vero E6 [5]; 1 nM)	cell viability (Vero E6 [5]; 10 nM)	cell viability (Vero E6 [5]; 100 nM)	cell viability (Vero E6 [5]; 1000 nM)	cell viability (Vero E6 [5]; 10000 nM)	relative viability EC50 (Caco-2 [6])	relative viability EC50 (Calu-3 [7])	relative viability EC50 (HepG2 [8])	relative viability EC50 (U2OS [9])	relative viability EC50 (Vero E6 [10])	drug sensitivity score (Caco-2 [11])	drug sensitivity score (Calu-3 [12])	drug sensitivity score (HepG2 [13])	drug sensitivity score (U2OS [14])	drug sensitivity score (Vero E6 [15])
COc1ccc2cc(OCC3(C(=O)O)CN(C(=O)c4ccc(F)cc4)C3)ccc2c1	93.5%	102%	94.8%	93.8%	99%	106%	95.4%	104%	110%	102%	106%	88.7%	100%	93%	96.9%	94.3%	108%	96.1%	97.9%	95.8%	99.2%	96.9%	99.5%	96.2%	95%	> 10 µM	> 10 µM	> 10 µM	> 10 µM	> 10 µM	0	0	0	0	0
NS(=O)(=O)NCCNc1nonc1/C(=N/O)Nc1ccc(F)c(Br)c1	89.9%	100%	98%	102%	96.4%	100%	96.2%	93.7%	95%	95.4%	100%	96%	103%	94.8%	102%	93.6%	102%	96.2%	102%	95%	100%	98.9%	98.2%	94.5%	107%	> 10 µM	> 10 µM	> 10 µM	> 10 µM	> 10 µM	0	0	0	0	0
N[C@@H](CCNCc1ccc(Cl)cc1)C(=O)N1CCCCC1	95.9%	94.3%	101%	96.6%	98.4%	108%	98.1%	101%	101%	93.2%	101%	109%	102%	112%	95.9%	98.9%	99%	104%	99.5%	101%	94.1%	99.3%	91%	100%	103%	> 10 µM	> 10 µM	> 10 µM	> 10 µM	> 10 µM	0	0	0	0	0
